Source: publication PMC5791972 (PLoS ONE, 2018)
“Also recorded” adds a separate entry of the source. Like-named read-outs stand apart in the source and are kept apart here.

Columns and labels:
Kv1.5 = Kv1.5 (Homo sapiens, UniProt P22460); assay: Ion channel selectivity patch clamp; format: cell-based; conditions: Voltage (+40 mV)
Kv4.3 = Kv4.3 (Homo sapiens, UniProt Q9UK17); assay: Ion channel selectivity patch clamp; format: cell-based; conditions: Voltage (+40 mV)
range of ion channels = assay: Ion channel selectivity panel, whole-cell manual patch clamp; format: cell-based; conditions: at 1.9 μM
[1] = Pharmacokinetic studies in mice; conditions: male, C57BL/6, mouse, in vivo
C57BL/6J mice = assay: Pavlovian fear learning and memory, non-manipulated mice; format: in vivo, mouse; conditions: 1 or 3 mg/kg oral, 2 h before
PDE3A (h) = PDE3A (h) (Homo sapiens, UniProt Q14432); assay: biochemical; conditions: 1.0E-06 M
NK1 (h) = biological target: T1, NK1 (h) (Homo sapiens, UniProt P25103); format: binding; conditions: 1.0E-06 M
T1 construct: (endogenous); host or cells: U-373MG cells

Lyn A kinase (h) = Lyn A kinase (h) (Homo sapiens, UniProt P07948); assay: biochemical; conditions: 1.0E-06 M
BZD (central) = format: binding, rat; conditions: 1.0E-06 M
AT1 (h) = biological target: T2, AT1 (h) (Homo sapiens, UniProt P30556); format: binding; conditions: 1.0E-06 M
T2 construct: host or cells: HEK-293 cells
T2 sequence (P30556 1-359): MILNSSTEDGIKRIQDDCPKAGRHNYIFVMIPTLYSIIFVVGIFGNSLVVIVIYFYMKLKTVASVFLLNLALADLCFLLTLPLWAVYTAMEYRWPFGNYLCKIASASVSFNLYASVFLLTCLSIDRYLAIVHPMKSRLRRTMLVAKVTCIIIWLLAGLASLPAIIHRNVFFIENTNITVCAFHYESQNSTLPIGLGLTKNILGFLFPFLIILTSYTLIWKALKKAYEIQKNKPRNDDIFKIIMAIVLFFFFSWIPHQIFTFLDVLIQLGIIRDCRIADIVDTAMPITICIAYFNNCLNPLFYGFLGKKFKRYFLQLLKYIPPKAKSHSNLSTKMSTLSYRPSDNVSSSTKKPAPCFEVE

[2] = biological target: T3, FLT-1 kinase (h) (VEGFR1) (Homo sapiens, UniProt P17948); assay: enzyme assay; format: biochemical; conditions: 1.0E-06 M
T3 construct: host or cells: Sf9 cells

SKCa channel = format: binding, rat; conditions: 1.0E-06 M
ETB (h) = biological target: T4, ETB (h) (Homo sapiens, UniProt P24530); format: binding
T4 construct: host or cells: CHO cells
T4 sequence (P24530 27-442): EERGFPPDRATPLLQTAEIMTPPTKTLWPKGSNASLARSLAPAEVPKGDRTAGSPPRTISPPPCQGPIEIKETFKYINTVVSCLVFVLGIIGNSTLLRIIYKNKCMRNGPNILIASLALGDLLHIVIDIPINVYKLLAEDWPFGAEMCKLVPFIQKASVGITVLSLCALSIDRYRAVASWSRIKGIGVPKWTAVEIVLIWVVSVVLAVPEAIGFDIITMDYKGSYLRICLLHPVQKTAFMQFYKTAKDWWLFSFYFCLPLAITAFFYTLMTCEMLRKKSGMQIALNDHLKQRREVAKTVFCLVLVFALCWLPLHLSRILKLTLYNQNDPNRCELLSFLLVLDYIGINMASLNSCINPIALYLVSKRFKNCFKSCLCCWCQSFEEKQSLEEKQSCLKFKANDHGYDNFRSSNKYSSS

V1a (h) = biological target: T5, V1a (h) (Homo sapiens, UniProt P37288); format: binding; conditions: 1.0E-06 M
T5 construct: host or cells: CHO cells

NMDA = format: binding, rat; conditions: 1.0E-06 M
human TRPC4 (hTRPC4) = biological target: T6, human TRPC4 (hTRPC4) (Homo sapiens, UniProt Q9UBN4); assay: Fluorometric calcium influx assay; format: cell-based; conditions: 1 pM to 1 μM, n = 8
T6 construct: The cDNAs for various full-length ion channels were subcloned into pcDNA5/TO; expressed in transfected cells; M1R co-expressed in the calcium assay, M2R in patch clamp

Na+ channel (site 2) = format: binding, rat; conditions: 1.0E-06 M
κ (KOP) = κ (KOP) (Rattus norvegicus, UniProt P34975); assay: biochemical
MCH1 (h) = biological target: T7, MCH1 (h) (Homo sapiens, UniProt Q99705); format: binding; conditions: 1.0E-06 M
T7 construct: host or cells: CHO cells

Cl- channel (GABA-gated) = format: binding, rat; conditions: 1.0E-06 M
PCP = format: binding, rat; conditions: 1.0E-06 M
TR (TH) = format: binding, rat; conditions: 1.0E-06 M
β3 (h) = biological target: T8, β3 (h) (Homo sapiens, UniProt P13945); format: binding; conditions: 1.0E-06 M
T8 construct: (endogenous); host or cells: SK-N-MC cells
T8 sequence (P13945 whole entry): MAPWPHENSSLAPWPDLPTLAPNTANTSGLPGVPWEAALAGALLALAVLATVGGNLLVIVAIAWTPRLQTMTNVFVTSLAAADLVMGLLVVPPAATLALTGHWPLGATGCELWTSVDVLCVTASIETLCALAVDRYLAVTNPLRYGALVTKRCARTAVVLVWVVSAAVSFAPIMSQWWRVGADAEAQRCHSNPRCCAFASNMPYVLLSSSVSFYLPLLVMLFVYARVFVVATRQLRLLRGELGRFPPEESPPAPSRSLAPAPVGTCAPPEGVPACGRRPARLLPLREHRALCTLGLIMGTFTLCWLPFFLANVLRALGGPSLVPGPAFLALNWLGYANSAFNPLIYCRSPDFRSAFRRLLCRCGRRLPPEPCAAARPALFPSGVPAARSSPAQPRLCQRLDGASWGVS

Sequence of κ (KOP) (P34975 whole entry): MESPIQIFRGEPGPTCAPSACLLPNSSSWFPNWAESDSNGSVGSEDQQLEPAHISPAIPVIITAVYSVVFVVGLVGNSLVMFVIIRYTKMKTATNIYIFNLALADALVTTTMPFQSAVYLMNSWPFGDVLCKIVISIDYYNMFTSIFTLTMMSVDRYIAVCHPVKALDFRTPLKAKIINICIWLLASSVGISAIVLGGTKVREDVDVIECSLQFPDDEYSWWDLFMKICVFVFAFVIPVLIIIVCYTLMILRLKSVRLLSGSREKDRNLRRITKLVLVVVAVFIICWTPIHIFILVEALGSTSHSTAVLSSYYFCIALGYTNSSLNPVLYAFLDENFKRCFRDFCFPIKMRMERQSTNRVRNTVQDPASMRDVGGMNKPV
T1 sequence (P25103 whole entry): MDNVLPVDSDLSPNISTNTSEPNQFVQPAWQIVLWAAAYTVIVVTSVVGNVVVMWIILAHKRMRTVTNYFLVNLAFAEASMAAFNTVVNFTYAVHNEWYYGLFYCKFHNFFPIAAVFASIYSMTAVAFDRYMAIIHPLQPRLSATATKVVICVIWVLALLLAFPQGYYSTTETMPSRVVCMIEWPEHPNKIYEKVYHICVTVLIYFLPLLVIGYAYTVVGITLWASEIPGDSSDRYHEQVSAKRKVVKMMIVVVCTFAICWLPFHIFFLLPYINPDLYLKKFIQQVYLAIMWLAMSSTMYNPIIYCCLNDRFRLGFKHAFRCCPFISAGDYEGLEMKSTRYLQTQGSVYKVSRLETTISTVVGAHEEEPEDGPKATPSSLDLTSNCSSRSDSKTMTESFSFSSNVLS
T5 sequence (P37288 whole entry): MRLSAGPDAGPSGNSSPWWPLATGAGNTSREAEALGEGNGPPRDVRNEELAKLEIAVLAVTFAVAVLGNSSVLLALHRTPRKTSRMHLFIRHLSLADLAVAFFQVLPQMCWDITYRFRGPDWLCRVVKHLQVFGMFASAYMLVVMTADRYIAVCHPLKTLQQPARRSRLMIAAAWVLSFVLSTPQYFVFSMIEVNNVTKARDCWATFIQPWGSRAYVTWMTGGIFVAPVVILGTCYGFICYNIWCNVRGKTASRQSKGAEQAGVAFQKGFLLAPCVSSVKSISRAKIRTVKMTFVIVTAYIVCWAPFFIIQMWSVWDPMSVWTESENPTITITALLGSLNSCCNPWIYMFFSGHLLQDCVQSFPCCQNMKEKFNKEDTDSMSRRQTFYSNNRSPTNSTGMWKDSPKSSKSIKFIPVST
T7 sequence (Q99705 whole entry): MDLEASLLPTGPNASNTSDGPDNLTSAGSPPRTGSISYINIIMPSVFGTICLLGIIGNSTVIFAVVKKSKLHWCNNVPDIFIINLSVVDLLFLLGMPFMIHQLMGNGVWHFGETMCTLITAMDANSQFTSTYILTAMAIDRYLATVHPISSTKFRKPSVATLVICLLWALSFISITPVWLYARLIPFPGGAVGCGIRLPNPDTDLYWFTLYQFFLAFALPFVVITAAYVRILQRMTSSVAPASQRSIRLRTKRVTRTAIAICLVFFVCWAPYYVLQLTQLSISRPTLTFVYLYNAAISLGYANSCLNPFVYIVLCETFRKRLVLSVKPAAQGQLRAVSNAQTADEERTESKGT
T3 sequence (P17948 27-1338): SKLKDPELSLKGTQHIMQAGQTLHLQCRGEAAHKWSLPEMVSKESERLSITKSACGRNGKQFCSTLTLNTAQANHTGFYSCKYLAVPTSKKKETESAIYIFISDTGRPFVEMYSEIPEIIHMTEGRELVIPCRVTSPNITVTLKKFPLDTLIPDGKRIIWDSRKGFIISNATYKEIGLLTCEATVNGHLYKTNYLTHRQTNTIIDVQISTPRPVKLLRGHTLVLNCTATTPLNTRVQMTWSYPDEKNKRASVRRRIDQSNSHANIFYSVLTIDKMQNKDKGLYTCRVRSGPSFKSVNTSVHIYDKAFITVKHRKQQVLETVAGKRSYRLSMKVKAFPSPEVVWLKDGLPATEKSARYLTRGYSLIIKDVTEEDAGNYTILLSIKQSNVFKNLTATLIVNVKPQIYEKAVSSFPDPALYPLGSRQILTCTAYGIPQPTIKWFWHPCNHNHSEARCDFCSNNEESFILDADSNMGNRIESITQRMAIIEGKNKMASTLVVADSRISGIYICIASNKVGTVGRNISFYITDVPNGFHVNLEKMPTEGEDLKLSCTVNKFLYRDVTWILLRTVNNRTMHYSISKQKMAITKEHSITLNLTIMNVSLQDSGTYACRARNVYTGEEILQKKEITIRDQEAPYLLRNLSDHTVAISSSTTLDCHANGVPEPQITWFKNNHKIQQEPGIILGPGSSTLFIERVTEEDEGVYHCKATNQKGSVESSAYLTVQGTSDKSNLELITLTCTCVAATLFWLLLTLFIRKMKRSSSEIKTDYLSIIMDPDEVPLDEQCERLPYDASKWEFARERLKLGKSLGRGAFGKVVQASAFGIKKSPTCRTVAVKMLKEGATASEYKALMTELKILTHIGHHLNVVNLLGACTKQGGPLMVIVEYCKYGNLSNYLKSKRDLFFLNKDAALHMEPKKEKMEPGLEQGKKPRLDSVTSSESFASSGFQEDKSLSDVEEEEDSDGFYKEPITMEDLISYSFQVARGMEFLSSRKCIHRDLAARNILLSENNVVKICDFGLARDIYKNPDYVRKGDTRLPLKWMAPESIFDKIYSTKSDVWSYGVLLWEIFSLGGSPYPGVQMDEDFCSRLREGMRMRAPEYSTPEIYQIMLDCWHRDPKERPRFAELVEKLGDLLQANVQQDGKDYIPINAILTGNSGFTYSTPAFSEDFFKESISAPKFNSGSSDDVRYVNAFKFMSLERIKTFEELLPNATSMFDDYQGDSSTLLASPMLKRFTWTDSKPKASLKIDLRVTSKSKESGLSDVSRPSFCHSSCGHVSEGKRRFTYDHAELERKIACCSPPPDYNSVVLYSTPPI
Sequence of Lyn A kinase (h) (P07948 whole entry): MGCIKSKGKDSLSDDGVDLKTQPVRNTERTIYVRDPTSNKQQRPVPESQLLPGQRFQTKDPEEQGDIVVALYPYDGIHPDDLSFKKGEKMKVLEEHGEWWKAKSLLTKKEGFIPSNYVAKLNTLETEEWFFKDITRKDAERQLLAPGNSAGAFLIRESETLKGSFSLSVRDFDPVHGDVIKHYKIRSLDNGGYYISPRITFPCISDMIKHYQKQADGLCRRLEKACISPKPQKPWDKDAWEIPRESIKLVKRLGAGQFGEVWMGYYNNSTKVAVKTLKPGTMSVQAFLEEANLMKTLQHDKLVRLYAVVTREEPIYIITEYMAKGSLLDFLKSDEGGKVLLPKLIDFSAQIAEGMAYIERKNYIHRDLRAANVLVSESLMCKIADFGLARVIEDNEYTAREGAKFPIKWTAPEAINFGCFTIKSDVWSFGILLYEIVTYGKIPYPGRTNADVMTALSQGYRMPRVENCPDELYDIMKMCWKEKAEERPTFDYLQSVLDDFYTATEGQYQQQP
Sequence of PDE3A (h) (Q14432 whole entry): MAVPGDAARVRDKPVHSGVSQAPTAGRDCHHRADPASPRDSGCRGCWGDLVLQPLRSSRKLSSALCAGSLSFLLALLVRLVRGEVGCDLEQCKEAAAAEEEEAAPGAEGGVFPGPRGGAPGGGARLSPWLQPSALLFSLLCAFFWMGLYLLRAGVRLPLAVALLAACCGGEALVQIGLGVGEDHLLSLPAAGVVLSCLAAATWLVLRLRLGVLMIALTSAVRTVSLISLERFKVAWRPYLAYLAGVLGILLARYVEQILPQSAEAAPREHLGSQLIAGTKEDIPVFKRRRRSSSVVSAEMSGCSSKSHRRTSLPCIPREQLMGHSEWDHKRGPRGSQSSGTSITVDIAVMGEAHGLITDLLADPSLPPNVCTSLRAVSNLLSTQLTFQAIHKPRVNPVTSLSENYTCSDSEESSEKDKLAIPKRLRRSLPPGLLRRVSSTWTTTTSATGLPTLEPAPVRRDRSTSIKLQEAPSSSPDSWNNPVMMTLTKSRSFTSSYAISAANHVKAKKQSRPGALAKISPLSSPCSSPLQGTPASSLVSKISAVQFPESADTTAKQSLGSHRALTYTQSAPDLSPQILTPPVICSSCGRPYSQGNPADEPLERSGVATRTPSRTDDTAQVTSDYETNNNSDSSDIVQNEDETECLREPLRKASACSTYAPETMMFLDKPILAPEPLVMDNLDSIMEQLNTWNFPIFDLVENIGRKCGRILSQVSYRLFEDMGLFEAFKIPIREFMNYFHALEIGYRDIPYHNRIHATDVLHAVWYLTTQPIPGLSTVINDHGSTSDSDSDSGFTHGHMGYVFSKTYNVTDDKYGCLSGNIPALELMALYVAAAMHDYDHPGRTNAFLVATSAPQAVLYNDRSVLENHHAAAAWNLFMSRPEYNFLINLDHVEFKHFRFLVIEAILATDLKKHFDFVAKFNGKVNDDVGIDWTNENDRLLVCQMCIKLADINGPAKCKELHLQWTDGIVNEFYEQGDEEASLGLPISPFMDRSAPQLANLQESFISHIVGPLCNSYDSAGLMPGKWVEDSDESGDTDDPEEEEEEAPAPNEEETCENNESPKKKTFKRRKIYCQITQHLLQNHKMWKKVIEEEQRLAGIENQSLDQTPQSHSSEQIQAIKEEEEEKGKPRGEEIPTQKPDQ

Structure (SMILES): Cn1c(=O)n(CCCO)c(=O)c2c1nc(Oc1cccc(Cl)c1)n2Cc1ccc(Cl)cc1 [HC-070]
- IC50 (Kv1.5): > 1900 nM
- IC50 (Kv4.3): > 1900 nM
- inhibition in most cases (range of ion channels): ≤ 50%
- half-life ([1]; iv, 1 mg/kg): 3.5 h
- half-life ([1]; po, 10 mg/kg): 3.3 h
- CS-US fear learning (freezing) (C57BL/6J mice): without an effect; also recorded: did not affect fear learning
- fear memory expression to the CS (C57BL/6J mice): no drug effect
- fear memory expression to the context (C57BL/6J mice): without effect; also recorded: no drug effect

Structure (SMILES): Cn1c(=O)n(CCCO)c(=O)c2c1nc(Oc1cccc(OC(F)(F)F)c1)n2Cc1ccc(Cl)cc1 [HC-608]
- inhibition at 1 µM (PDE3A (h); read-out: % Inhibition 1st): 3.1%
- inhibition at 1 µM (PDE3A (h); read-out: % Inhibition 2nd): 0.2%
- inhibition at 1 µM (PDE3A (h); read-out: % Inhibition Mean): 1.7%
- inhibition at 1 µM (NK1 (h); read-out: % Inhibition 1st): -2.6%
- inhibition at 1 µM (NK1 (h); read-out: % Inhibition 2nd): -13%
- inhibition at 1 µM (NK1 (h); read-out: % Inhibition Mean): -7.8%
- inhibition at 1 µM (Lyn A kinase (h); read-out: % Inhibition 1st): 13.7%
- inhibition at 1 µM (Lyn A kinase (h); read-out: % Inhibition 2nd): 5.5%
- inhibition at 1 µM (Lyn A kinase (h); read-out: % Inhibition Mean): 9.6%
- % Inhibition 1st (BZD (central)): -3%
- % Inhibition 2nd (BZD (central)): -31.5%
- % Inhibition Mean (BZD (central)): -17.3%
- inhibition at 1 µM (AT1 (h); read-out: % Inhibition 1st): 0.5%
- inhibition at 1 µM (AT1 (h); read-out: % Inhibition 2nd): -6%
- inhibition at 1 µM (AT1 (h); read-out: % Inhibition Mean): -2.7%
- inhibition at 1 µM ([2]; read-out: % Inhibition 1st): 9.3%
- inhibition at 1 µM ([2]; read-out: % Inhibition 2nd): 7.3%
- inhibition at 1 µM ([2]; read-out: % Inhibition Mean): 8.3%
- % Inhibition 1st (SKCa channel): -2.5%
- % Inhibition 2nd (SKCa channel): -4.7%
- % Inhibition Mean (SKCa channel): -3.6%
- inhibition at 1 µM (ETB (h); 1.0E-06 M, read-out: % Inhibition 2nd): -0.1%
- inhibition at 1 µM (ETB (h); 1.0E-06 M, read-out: % Inhibition Mean): 12.7%
- inhibition at 1 µM (ETB (h); read-out: % Inhibition 1st): 25.5%
- inhibition at 1 µM (V1a (h); read-out: % Inhibition 1st): -9.9%
- inhibition at 1 µM (V1a (h); read-out: % Inhibition 2nd): 12.5%
- inhibition at 1 µM (V1a (h); read-out: % Inhibition Mean): 1.3%
- % Inhibition 1st (NMDA): 19%
- % Inhibition 2nd (NMDA): 3.2%
- % Inhibition Mean (NMDA): 11.1%
- IC50 (human TRPC4 (hTRPC4)): 32.5 ± 1.8 nM
- % Inhibition 1st (Na+ channel (site 2)): 12%
- % Inhibition 2nd (Na+ channel (site 2)): -7.3%
- % Inhibition Mean (Na+ channel (site 2)): 2.3%
- inhibition at 1 µM (κ (KOP); read-out: % Inhibition 1st): -8.1%
- inhibition at 1 µM (κ (KOP); read-out: % Inhibition 2nd): 1.1%
- inhibition at 1 µM (κ (KOP); read-out: % Inhibition Mean): -3.5%
- inhibition at 1 µM (MCH1 (h); read-out: % Inhibition 1st): 7.9%
- inhibition at 1 µM (MCH1 (h); read-out: % Inhibition 2nd): -27.2%
- inhibition at 1 µM (MCH1 (h); read-out: % Inhibition Mean): -9.6%
- % Inhibition 1st (Cl- channel (GABA-gated)): 24.7%
- % Inhibition 2nd (Cl- channel (GABA-gated)): 23.2%
- % Inhibition Mean (Cl- channel (GABA-gated)): 23.9%
- % Inhibition 1st (PCP): -9%
- % Inhibition 2nd (PCP): -0.1%
- % Inhibition Mean (PCP): -4.6%
- % Inhibition 1st (TR (TH)): 3.2%
- % Inhibition 2nd (TR (TH)): -1.6%
- % Inhibition Mean (TR (TH)): 0.8%
- inhibition at 1 µM (β3 (h); read-out: % Inhibition 1st): 0.9%
- inhibition at 1 µM (β3 (h); read-out: % Inhibition 2nd): -6.7%
- inhibition at 1 µM (β3 (h); read-out: % Inhibition Mean): -2.9%
